Like-named read-outs stand apart in the source and are kept apart here. Bridge positions count the residues as written; N and C are the ends. Ends that are not written are not given here. I, II: the chains in the order shown. * marks the point of attachment. StBu = CC(C)(C)S*
Assays:
[1] = tested on: GRP58 (protein disulfide-isomerase A3); assay: SPR screening against immobilized GRP58; assay type: binding; conditions: 100 nM synbody, Biacore T-100, CM5 amine coupling, 25°C immobilization, 90 s association, 240 s dissociation
Description: (§1) The synbody (100nM concentration) was screened by Surface Plasmon Resonance (SPR) against immobilized AKT1 and GRP58 on a Biacore T-100 SPR. The synbody appeared to have high affinity for AKT1 and low affinity for GRP58 (Figure S2). To accurately determine the binding kinetics of the synbody-AKT1 complex, several concentrations of synbody were injected over a low-density surface of biotin-labeled AKT1 captured on a Neutratvidin SPR chip using a Biacore A-100.
(§2) SPR screening of the synbody against AKT1 and GRP58 was performed on a Biacore T-100 (GE Healthcare, Piscataway, NJ, USA). The series S sensor chip CM5, amine coupling reagents and HBS-EP were obtained from GE Healthcare. A standard amine immobilization protocol was performed at 25°C using NaHCO3 (10mM in 150mM NaCl, pH 4.5) as the immobilization buffer. The CM-5 dextran chip was activated by a 10 minute injection of a freshly prepared 1∶1 solution of 400 mM 1-ethyl-3-(3-dimethylaminopropyl)-carbodimide (EDC): 100 mM N-hydroxysuccimide (NHS) in water. The NHS-carboxy groups of the dextran surface were treated with a solution of AKT1 or GRP58 (25 µg/ml) in sodium acetate (pH 5.0) for 8 mins at a flow rate of 10 µl/min. Any residual active sites were then quenched by a 5 min pulse of ethylene diamine (1M, pH 8.5). […]

AKT1 [2] = biological target: T1, AKT1 (Homo sapiens, UniProt P31749); assay: SPR determination of Kd / binding kinetics on AKT1; set-up: purchased Life Technologies
T1 sequence (P31749 whole entry): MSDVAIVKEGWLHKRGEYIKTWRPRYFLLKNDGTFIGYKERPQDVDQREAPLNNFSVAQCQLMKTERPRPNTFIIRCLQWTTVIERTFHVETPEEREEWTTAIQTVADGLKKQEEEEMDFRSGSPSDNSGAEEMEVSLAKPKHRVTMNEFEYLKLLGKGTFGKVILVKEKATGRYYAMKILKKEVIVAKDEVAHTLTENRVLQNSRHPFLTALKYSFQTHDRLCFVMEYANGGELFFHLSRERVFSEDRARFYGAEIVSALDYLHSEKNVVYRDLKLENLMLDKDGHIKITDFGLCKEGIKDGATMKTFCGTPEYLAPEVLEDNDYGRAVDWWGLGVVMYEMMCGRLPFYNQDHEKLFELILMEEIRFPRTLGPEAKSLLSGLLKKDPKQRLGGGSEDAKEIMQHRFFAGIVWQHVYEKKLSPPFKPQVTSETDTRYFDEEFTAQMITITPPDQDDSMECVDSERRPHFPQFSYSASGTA
Description: To a solution of AKT1 (25µg, 4.16×10^−10 moles, 1.0 equiv.) in 50mM Na2CO3 in 150mM NaCl, pH 9.0 (200 µl), was added a solution of NHS-LC-LC-Biotin (Thermo Scientific) (9.4 µl, 8.32×10^−10 moles, 2.0 equiv.) in DMSO. The reaction was kept on ice at 0°C with frequent agitation for 2 hours, before the mixture was transferred to a 10 kDa Millipore Microcon filter and diluted with HBS-N (200 µl). The excess biotin was removed by spinning the filter at 12,000 G until the volume on top of the filter had been reduced to 0.25 the original volume. The retentate was washed with an additional 200 µl of HBS-N and spun for a further 15 minutes. The filter was then flipped over and the protein recovered (15 µg, 60%). After filtration, an appropriate volume of 10× HBS-N was added to the sample to increase the HBS-N concentration to a 1× equivalent.
Determination of the binding kinetics of the synbody on AKT1 was performed on a Biacore A-100. The series S sensor chip CM5, amine coupling reagents and HBS-EP were obtained from GE Healthcare. A standard amine immobilization protocol was performed at 25°C using NaHCO3 (10mM in 150mM NaCl, pH 4.5) as the immobilization buffer. Spots 1,2 and 3 on each of the four flow cells of the CM-5 dextran chip were activated by a 10 minute injection of a freshly prepared 1∶1 solution of 40 0mM EDC : 100 mM NHS in water. The NHS-carboxy groups of spot 1 of the dextran surface were treated with a solution of neutravidin (50 µg/ml) in sodium acetate (pH 5.0) for 8 mins at a flow rate of 10 µl/min. Any residual active sites were then quenched by a 5 min pulse of ethylene diamine (1M, pH 8.5). Similarly neutravidin was coupled to spots 2 and 3 via a 12 and 16 min injection cycle respectively, followed by quenching. An additionally 7 min injection of ethylene diamine was then pulsed over spots 1–3 to ensure no activated sites remained. […]
For high-resolution kinetics, biotin-tagged AKT1 was captured in multiple spot densities with Rmax's ranging from 20–100 RUs. […] Association and dissociation were monitored for 3 and 16 min, respectively. […]

AKT1 [3] = biological target: T1, AKT1; assay: SPR screening against immobilized AKT1; assay type: binding; set-up: purchased Life Technologies; conditions: 100 nM synbody, Biacore T-100, CM5 amine coupling, 25°C immobilization, 90 s association, 240 s dissociation
Description: as §1, §2

AKT1 [4] = biological target: T1, AKT1; assay: IP of AKT isoforms spiked into A549 lysate: AKT1; assay type: binding; set-up: purchased Life Technologies; conditions: 250 ng of each isoform in 500 µg A549 lysate, Western Blot
Description: This apparent specificity was investigated further by performing an IP using 250 ng of each isoform of AKT spiked into 500 µg of A-549 cell lysate.
For all IP experiments, either a 1 µM or 250 nM solution of biotin-conjugated synbody was captured on 20 µL of streptavidin coated paramagnetic M-280 Dynabeads (Life Technologies) according to the manufacturers protocol. Synbody coated beads were washed five times with 1 mL of 100 mM phosphate buffered saline containing 0.05% Tween-20 (PBST) and incubated overnight at 4°C with shaking in the desired amount of target protein in A549 cell lysate. For Kd determination experiments, serial dilutions of AKT1 or ABL1 were prepared in binding buffer. After binding, beads were washed five times with 1 mL of PBST and heated at 70°C in 20 µL of 1× LDS loading buffer (Invitrogen) for 10 minutes. The samples were analyzed by SDS-PAGE gel with Western Blot detection using the appropriate antibody and imaged on a GE Healthcare Typhoon Trio.

## I: AHKVVPQRQIRHAYNRYGSGKC(StBu)-NH2 / II: FRGWAHIFFGPHVIYRGGSG (amide I:21-II:C) [synbody]
[1]
  affinity for GRP58 by SPR screening: low affinity
AKT1 [2]; Biacore A-100, biotin-labeled AKT1 on neutravidin, synbody 25 nM to 0.78 nM, 1:1 binding model, read-out: association rate, ka
  kon: 200000 M⁻¹ s⁻¹
AKT1 [2]; Biacore A-100, biotin-labeled AKT1 on neutravidin, synbody 25 nM to 0.78 nM, 1:1 binding model, read-out: dissociation rate, kd
  koff: 0.0003 s⁻¹
AKT1 [2]; Figure 3A, 12.5 and 6.25 nM synbody, Biacore A-100, 1:1 binding model, read-out: koff
  koff: 0.000295 s⁻¹
AKT1 [3]
  affinity for AKT1 by SPR screening: high affinity
AKT1 [4]
  IP of AKT1 (isoform selectivity): selectively precipitates AKT1
